Key:
dry eye model [1] = assay: Fluorescein staining score, 0.2% benzalkonium chloride dry eye model, Comparative Study 2 (Example 5); format: in vivo, mice; conditions: two days after start, compared with control; 0.03% apocynin, 0.5% (w/v) hyaluronic acid or 3% diquafosol sodium twice a day; FIG. 11A
Text: After acclimating male C57BL6 mice (7 weeks old) to the experimental environment, those with almost uniform weight values and no eye abnormalities were divided into the following groups (n=3 to 4). • 7 weeks old/normal (non-dry eye group) • 7 weeks old/dry eye model+control (solvent eye drop) group • 7 weeks old/dry eye model+0.003% (w/v) apocynin eye drop group • 7 weeks old/dry eye model+0.03% (w/v) apocynin eye drop group • 7 weeks old/dry eye model+3% diquafosol sodium eye drop group • 7 weeks old/dry eye model+0.5% (w/v) hyaluronic acid eye drop group A dry eye model was created by instilling 3 μL of the 0.2% benzalkonium chloride solution into each of both eyes twice a day for 8 days. Then, the control group received PBS alone, and the test group received 0.003% (w/v), 0.03% (w/v) apocynin and 0.5% (w/v) hyaluronic acid in PBS. The 3% diquafosol sodium eye drop was instilled into each of both eyes at 3 μL, twice a day for 9 days. In Example 5, 1, 2, 5, and 9 days after the start of instillation of the comparative test drug, 1 μL of 0.1% sodium fluorescein solution was instilled into each of both eyes. Fluorescein-stained images were observed under a blue filter using a slit lamp (Kowa Co., Ltd., SL-17), and the degree of corneal epithelial damage was scored.

[2] = reported for dry eye treatment; cited from earlier work
dry eye model [3] = assay: Fluorescein staining score, benzalkonium chloride dry eye model, Comparative Study 1 (Example 4); format: in vivo, mice; conditions: 3 days after start of instillation, compared to control; 0.1% (w/v) apocynin or 0.5% (w/v) hyaluronic acid twice a day; FIG. 9A
Description: After acclimating male C57BL6 mice (7 weeks old) to the experimental environment, those with almost uniform weight values and no eye abnormalities were divided into the following groups (n=4). • 7 weeks old/normal (non-dry eye group) • 7 weeks old/dry eye model+control (solvent eye drop) group • 7 weeks old/dry eye model+0.1% (w/v) apocynin eye drop group • 7 weeks old/dry eye model+0.5% (w/v) hyaluronic acid eye drop group A dry eye model was prepared by instilling the benzalkonium chloride solution at 3 μL each eye, twice a day for 8 days. After that, the control group received the 0.5% methylcellulose solution alone, and the test group received 0.1% (w/v) apocynin or 0.5% (w/v) hyaluronic acid suspended in the 0.5% methylcellulose solution twice a day for 15 days at 3 μL for each of both eyes. In Example 4, 1, 3, 6, 8, and 15 days after the start of instillation of the comparative test drug, 1 μL of the 0.1% fluorescein sodium solution was instilled into each of both eyes. Fluorescein-stained images were observed under a blue filter using a slit lamp (Kowa Co., Ltd., SL-17), and the degree of corneal epithelial damage was scored.

Compound	fluorescein staining score (corneal epithelial damage) (dry eye model [1])	side effect specific to ingredients [2]	fluorescein staining score (corneal damage) (dry eye model [3])
O=c1ccn([C@@H]2O[C@H](COP(=O)(O)OP(=O)(O)OP(=O)(O)OP(=O)(O)OC[C@H]3O[C@@H](n4ccc(=O)[nH]c4=O)[C@H](O)[C@@H]3O)[C@@H](O)[C@H]2O)c(=O)[nH]1 [diquafosol sodium, reference compound]	no effect was observed	causes ocular discharge and eye pain	–
O=C(NC(Cc1cc(=O)[nH]c2ccccc12)C(=O)O)c1ccc(Cl)cc1 (centres unmarked) [rebamipide]	–	causes dysgeusia	–
hyaluronic acid [reference compound]	no effect was observed	–	no effect was observed

Reference: patent US20230338307A1, “PROPHYLACTIC AGENT, AMELIORATING AGENT, AND THERAPEUTIC AGENT FOR DRY EYE” (TSUBOTA LABORATORY, INC., priority 2020, published 2023)
